Consider two compounds from US20040162247A1, “Therapeutic agent or osteoporosis comprising an active ingredient of quercetin derivatives” (priority 2000, published 2004).

Several values for one entry are separate records, joined by “and”; a condition that tells them apart may be missing. Equal values may be shown once. Read-outs that look alike come from different tables or passages of the source.

Data set [1] relates to osteoclasts. In words: Osteoclast proliferation, count of TRAP-positive multinucleated cells. It is filed as cell-based, ICR mice. The note with it: for Number of osteoclast (% of control group): day 2, TRAP staining. As to the method: ICR mice (Korea Research Institute of Chemical Technology, Taejon, Korea) were fed with calcium deficient diet (ICN Biomedicals, Inc., Ohio, U.S.A.) for 4 weeks to activate osteoclasts. The right and left tibiae and femurs of the calcium […] were removed avoiding contamination of surrounding muscle tissues. Femurs and right and left tibiae, classified on the clean bench and kept on ice separately, were added into the α-MEM containing 100 μg/ml streptomycin and then vigorously shaken respectively to extract osteoclasts into the medium. After kept on ice for 5 minutes, the cell suspension was centrifuged at 800×g for 3 minutes and the cell pellet was resuspended in a α-MEM nutrient medium supplemented with 10% FBS, 100 μg/ml streptomycin and 100 unit/ml penicillin. The cell suspension was distributed into wells of a 24-well plate at a cell number of 3.5×10^6/well. To the osteoclasts obtained in Example 2-1 above, quercetin was added to yield concentrations of 1×10^−8 to 1×10^−2 mg/ml. On day 2, the cells were subjected to tartrate-resistant acid phosphatase (TRAP) staining using a commercially available kit (Sigma Chemical Co., U.S.A.), followed by counting of osteoclasts which are TRAP-positive multinucleated cells (MNC), judged by more than three nuclei in a cell stained red (see: Table 2).

For data set [2] the following is noted: rat, in vivo.
Procedure: (§1) Female SD (Sprague-Dawley) rats, a model animal for type I osteoporosis occurring after menopause were employed for evaluating pharmacological effectiveness of quercetin. Female rats (10 weeks old) weighing 200 to 300 g, obtained from the Korea Research Institute of Chemical Technology were employed as experimental animals. Experiment was carried out by the procedure which comprises removing ovary, administration of agents to the each group of rats, and at certain days after ovariectomy, the rats were sacrificed and subjected to analyses including measurement of body weight, examination of internal organs, measurement of trabecular bone area, complete blood count, and biochemical analyses of plasma.
(§2) The Sham group, animals operated upon for the surgery as in the ovariectomized rats except for removing ovary, were employed to compare the changes caused solely by ovariectomy in control group which were ovariectomized but no agent was administered. Control group was employed to compare the changes caused by administration of agents in test group which were ovariectomized and administered with testing agents.
(§3) During the period of administration, blood was sampled once a week. After 9-week administration, entire blood was withdrawn with heparin treatment. Following complete blood count (CBC), the blood was centrifuged at 3,000 rpm for 20 minutes to obtain plasma which was stored at −70° C. until use. For measurement of bone mineral density, the lumbar spine L5 and L6, and right tibia were removed and stored separately in 4% (v/v) formalin solution.
In data set [3] the test system is mice. The following applies: orally administered, M. Sullivan et al. 1951; cited from earlier work.
Data set [4] has as its system ovariectomized rats. In words: Wet weight of internal organs of ovariectomized rats after drug administration. The note with it: OVX rats. On the procedure:
To find out quercetin effect on internal organ of test animal, liver, kidney, brain, uterus, skin, and tibia were removed from the test animals administered with test agents for 9 weeks after operation and wet weight of each organ was measured (see: Table 4).

A short description of data set [5]: Body weight of ovariectomized rats during drug administration.
Procedure: as §1, §2, §3
Setting [6] is: 9 weeks i.p. (E2 1 μg/kg/day; quercetin, genistein 10 mg/kg/day).

For the compound `O=c1c(O)c(-c2ccc(O)c(O)c2)oc2cc(O)cc(O)c12` [Quercetin, quercetin], in data set [1] (1×10^−8 to 1×10^−4 mg/ml), the “Inhibitory effect on the osteoclast proliferation (in words)” value is recorded as “little inhibitory effect”. Besides, the “Number of osteoclast (% of control group)” value in data set [1] (1 × 10^−2 mg/ml) was 25 % of control group and 24.7 ± 5.7 % of control group; in data set [1] (1 × 10^−3 mg/ml) it was 61 % of control group and 61.1 ± 4.1 % of control group; in data set [1] (1 × 10^−4 mg/ml), 89.6 ± 3.2 % of control group; in data set [1] (1 × 10^−6 mg/ml) it was 96.8 ± 2.7 % of control group; in data set [1] (1 × 10^−8 mg/ml) it was 100.9 ± 1.8 % of control group. In addition, in data set [2], the “Weight” value was found to be 221.87 ± 7.57 g. Besides, the LD50 entry in data set [3] is “not less than 160 mg/kg”.

In data set [4] (setting [6]), `O=c1c(-c2ccc(O)cc2)coc2cc(O)cc(O)c12` [Genistein, genistein] had a Brain wet weight of 1.98 ± 0.03 g. The compound also registered a Kidney wet weight in data set [4] (setting [6]) of 1.83 ± 0.03 g. This compound registered a Liver wet weight in data set [4] (setting [6]) of 10.03 ± 0.36 g. In addition, the Skin wet weight in data set [4] (setting [6]) came to 188 ± 9 mg. This compound also came in with a Tibia wet weight in data set [4] (setting [6]) of 0.537 ± 0.008 g. For the same compound, in data set [4] (setting [6]), the Uterus wet weight is given as 106 ± 3 mg. Moreover, the “Effect on weight of uterus / uterine hypertrophy (in words)” value in data set [4] (9 weeks i.p., compared with control group) is “did not give rise to change in weight of uterus”. For the same compound, the “Weight” value in data set [5] (OVX rats, 1 week after operation (start of administration)) came to 242.12 ± 5.96 g; in data set [5] (OVX rats, i.p. from 1 week after operation (E2 1 μg/kg/day; quercetin, genistein 10 mg/kg/day), 2 weeks after operation), 270.00 ± 8.05 g; in data set [5] (OVX rats, i.p. from 1 week after operation (E2 1 μg/kg/day; quercetin, genistein 10 mg/kg/day), 3 weeks after operation) it was 296.20 ± 7.68 g; in data set [5] (OVX rats, i.p. from 1 week after operation (E2 1 μg/kg/day; quercetin, genistein 10 mg/kg/day), 4 weeks after operation), 310.80 ± 7.80 g; in data set [5] (OVX rats, i.p. from 1 week after operation (E2 1 μg/kg/day; quercetin, genistein 10 mg/kg/day), 5 weeks after operation), 317.29 ± 7.93 g; in data set [5] (OVX rats, i.p. from 1 week after operation (E2 1 μg/kg/day; quercetin, genistein 10 mg/kg/day), 6 weeks after operation) it was 327.19 ± 8.31 g. Also, the “Weight” value is listed as 332.80 ± 9.23 g in data set [5] (OVX rats, i.p. from 1 week after operation (E2 1 μg/kg/day; quercetin, genistein 10 mg/kg/day), 7 weeks after operation); 336.38 ± 9.01 g in data set [5] (OVX rats, i.p. from 1 week after operation (E2 1 μg/kg/day; quercetin, genistein 10 mg/kg/day), 8 weeks after operation); 342.71 ± 8.26 g in data set [5] (OVX rats, i.p. from 1 week after operation (E2 1 μg/kg/day; quercetin, genistein 10 mg/kg/day), 9 weeks after operation); 347.23 ± 7.57 g in data set [5] (OVX rats, i.p. from 1 week after operation (E2 1 μg/kg/day; quercetin, genistein 10 mg/kg/day), 10 weeks after operation); 217.55 ± 7.24 g in data set [5] (before operation (baseline, before administration)). Further, the “Body weight increase after ovariectomy (in words)” value in data set [5] (OVX rats, compared with control group, E2 1 μg/kg/day, quercetin or genistein 10 mg/kg/day) is “rapid increase of body weight”.
